# Measurements: patent US10071086B2, “1H-pyrazolo[3,4-b]pyridines and therapeutic uses thereof” (Samumed, LLC, priority 2012, dated 2018)
# Test system: Wnt pathway
# Test: Wnt activity reporter assay (SP5 promoter-luciferase in SW480 cells)
# Assay type: cell-based
# Details: Homo sapiens, SP5 promoter firefly luciferase reporter, read-out: Wnt inhibition
# Excerpt: The above synthesized compounds were screened using the assay procedure for Wnt activity described below.
# Reporter cell lines can be generated by stably transducing cells of cancer cell lines (e.g., colon cancer) with a lentiviral construct that include a wnt-responsive promoter driving expression of the firefly luciferase gene.
# Lentiviral constructs can be made in which the SP5 promoter, a promoter having eight TCF/LEF binding sites derived from the SP5 promoter, is linked upstream of the firefly luciferase gene. The lentiviral constructs can also include a hygromycin resistance gene as a selectable marker. The SP5 promoter construct can be used to transduce SW480 cells, a colon cancer cell line having a mutated APC gene that generates a truncated APC protein, leading to de-regulated accumulation of β-catenin.
# Cultured SW480 cells bearing a reporter construct can be distributed at approximately 10,000 cells per well into 96 well or 384 well plates. Compounds from a small molecule compound library can then be added to the wells in half-log dilutions using a ten micromolar top concentration. A series of control wells for each cell type receive only buffer and compound solvent. Twenty-four to forty hours after the addition of compound, reporter activity for luciferase can be assayed, for example, by addition of the BrightGlo luminescence reagent (Promega) and the Victor3 plate reader (Perkin Elmer). Readings can be normalized to DMSO only treated cells, and normalized activities can then be used in the IC50 calculations.
row,SMILES,IC50 [µM]
1,"O=C(Nc1cncc(-c2cnc3[nH]nc(-c4nc5c(-c6cccc(F)c6)cncc5[nH]4)c3c2)c1)C(F)(F)F [Compound 1, 2,2,2-Trifluoro-N-(5-(3-(7-(3-fluorophenyl)-3H-imidazo[4,5-c]pyridin-2-yl)-1H-pyrazolo[3,4-b]pyridin-5-yl)pyridin-3-yl)acetamide]",0.006
2,"CN1CCN(c2cncc(-c3cnc4[nH]nc(-c5nc6c(-c7cccc(F)c7)cncc6[nH]5)c4c3)c2)CC1 [Compound 4, 3-(7-(3-Fluorophenyl)-3H-imidazo[4,5-c]pyridin-2-yl)-5-(5-(4-methylpiperazin-1-yl)pyridin-3-yl)-1H-pyrazolo[3,4-b]pyridine]",0.333
3,"CN(C)CCNc1cncc(-c2cnc3[nH]nc(-c4nc5c(-c6cccc(F)c6)cncc5[nH]4)c3c2)c1 [Compound 6, N1-(5-(3-(7-(3-Fluorophenyl)-3H-imidazo[4,5-c]pyridin-2-yl)-1H-pyrazolo[3,4-b]pyridin-5-yl)pyridin-3-yl)-N2,N2-dimethylethane-1,2-diamine]",0.55
4,"CCNC(=O)c1cncc2[nH]c(-c3n[nH]c4ncc(-c5cccnc5)cc34)nc12 [Compound 8, N-Ethyl-2-(5-(pyridin-3-yl)-1H-pyrazolo[3,4-b]pyridin-3-yl)-3H-imidazo[4,5-c]pyridine-7-carboxamide]",8.25
5,"Fc1cc(-c2cncc3[nH]c(-c4n[nH]c5ncc(-c6cccnc6)cc45)nc23)cc(N2CCOCC2)c1 [Compound 13, 4-(3-Fluoro-5-(2-(5-(pyridin-3-yl)-1H-pyrazolo[3,4-b]pyridin-3-yl)-3H-imidazo[4,5-c]pyridin-7-yl)phenyl)morpholine]",0.172
6,"CC(C)N1CCN(c2cc(F)cc(-c3cncc4[nH]c(-c5n[nH]c6ncc(-c7cccnc7)cc56)nc34)c2)CC1 [Compound 15, 3-(7-(3-Fluoro-5-(4-isopropylpiperazin-1-yl)phenyl)-3H-imidazo[4,5-c]pyridin-2-yl)-5-(pyridin-3-yl)-1H-pyrazolo[3,4-b]pyridine]",0.326
7,"Fc1cc(CN2CCCC2)cc(-c2cncc3[nH]c(-c4n[nH]c5ncc(-c6cccnc6)cc45)nc23)c1 [Compound 16, 3-(7-(3-Fluoro-5-(pyrrolidin-1-ylmethyl)phenyl)-3H-imidazo[4,5-c]pyridin-2-yl)-5-(pyridin-3-yl)-1H-pyrazolo[3,4-b]pyridine]",0.384
8,"CC(C)N(Cc1cc(F)cc(-c2cncc3[nH]c(-c4n[nH]c5ncc(-c6cccnc6)cc45)nc23)c1)C(C)C [Compound 17, N-(3-Fluoro-5-(2-(5-(pyridin-3-yl)-1H-pyrazolo[3,4-b]pyridin-3-yl)-3H-imidazo[4,5-c]pyridin-7-yl)benzyl)-N-isopropylpropan-2-amine]",0.55
9,"CC1CCN(c2cc(F)cc(-c3cncc4[nH]c(-c5n[nH]c6ncc(-c7cccnc7)cc56)nc34)c2)CC1 [Compound 19, 3-(7-(3-Fluoro-5-(4-methylpiperidin-1-yl)phenyl)-3H-imidazo[4,5-c]pyridin-2-yl)-5-(pyridin-3-yl)-1H-pyrazolo[3,4-b]pyridine]",0.499
10,"CN(C)Cc1cncc(-c2cnc3[nH]nc(-c4nc5c(-c6cncc(F)c6)cncc5[nH]4)c3c2)c1 [Compound 20, 1-(5-(3-(7-(5-Fluoropyridin-3-yl)-3H-imidazo[4,5-c]pyridin-2-yl)-1H-pyrazolo[3,4-b]pyridin-5-yl)pyridin-3-yl)-N,N-dimethylmethanamine]",10
11,"Fc1cc(-c2cncc3[nH]c(-c4n[nH]c5ncc(-c6cccnc6)cc45)nc23)cc(N2CCNCC2)c1 [Compound 21, 3-(7-(3-Fluoro-5-(piperazin-1-yl)phenyl)-3H-imidazo[4,5-c]pyridin-2-yl)-5-(pyridin-3-yl)-1H-pyrazolo[3,4-b]pyridine]",0.167
12,"CN(C)Cc1cncc(-c2cnc3[nH]nc(-c4nc5c(-c6cc(F)cc(CNS(C)(=O)=O)c6)cncc5[nH]4)c3c2)c1 [Compound 22, N-(3-(2-(5-(5-((Dimethylamino)methyl)pyridin-3-yl)-1H-pyrazolo[3,4-b]pyridin-3-yl)-3H-imidazo[4,5-c]pyridin-7-yl)-5-fluorobenzyl)methanesulfonamide]",0.032
13,"Fc1cncc(-c2cncc3[nH]c(-c4n[nH]c5ncc(-c6cccnc6)cc45)nc23)c1 [Compound 23, 3-(7-(5-Fluoropyridin-3-yl)-3H-imidazo[4,5-c]pyridin-2-yl)-5-(pyridin-3-yl)-1H-pyrazolo[3,4-b]pyridine]",10
14,"CN(C)Cc1cncc(-c2cnc3[nH]nc(-c4nc5c(-c6cc(F)cc(N7CCOCC7)c6)cncc5[nH]4)c3c2)c1 [Compound 24, 1-(5-(3-(7-(3-Fluoro-5-morpholinophenyl)-3H-imidazo[4,5-c]pyridin-2-yl)-1H-pyrazolo[3,4-b]pyridin-5-yl)pyridin-3-yl)-N,N-dimethylmethanamine]",0.021
15,"CN(C)Cc1cncc(-c2cnc3[nH]nc(-c4nc5c(-c6cncc(C(F)(F)F)c6)cncc5[nH]4)c3c2)c1 [Compound 25, N,N-Dimethyl-1-(5-(3-(7-(5-(trifluoromethyl)pyridin-3-yl)-3H-imidazo[4,5-c]pyridin-2-yl)-1H-pyrazolo[3,4-b]pyridin-5-yl)pyridin-3-yl)methanamine]",10
16,"Fc1cccc(-c2cncc3[nH]c(-c4n[nH]c5ncc(-c6cncc(CN7CCCC7)c6)cc45)nc23)c1 [Compound 27, 3-(7-(3-Fluorophenyl)-3H-imidazo[4,5-c]pyridin-2-yl)-5-(5-(pyrrolidin-1-ylmethyl)pyridin-3-yl)-1H-pyrazolo[3,4-b]pyridine]",1.78
17,"Fc1cccc(-c2cncc3[nH]c(-c4n[nH]c5ncc(-c6cncc(CN7CCCCC7)c6)cc45)nc23)c1 [Compound 28, 3-(7-(3-Fluorophenyl)-3H-imidazo[4,5-c]pyridin-2-yl)-5-(5-(piperidin-1-ylmethyl)pyridin-3-yl)-1H-pyrazolo[3,4-b]pyridine]",0.72
18,"O=C(Nc1cncc(-c2cnc3[nH]nc(-c4nc5c(-c6cccc(F)c6)cncc5[nH]4)c3c2)c1)C1CC1 [Compound 114, N-(5-(3-(7-(3-Fluorophenyl)-3H-imidazo[4,5-c]pyridin-2-yl)-1H-pyrazolo[3,4-b]pyridin-5-yl)pyridin-3-yl)cyclopropanecarboxamide]",0.011
19,"O=C(Cc1ccccc1)Nc1cncc(-c2cnc3[nH]nc(-c4nc5c(-c6ccc(F)cc6)cncc5[nH]4)c3c2)c1 [Compound 128, N-(5-(3-(7-(4-Fluorophenyl)-3H-imidazo[4,5-c]pyridin-2-yl)-1H-pyrazolo[3,4-b]pyridin-5-yl)pyridin-3-yl)-2-phenylacetamide]",0.09
20,"Fc1ccc(-c2cncc3[nH]c(-c4n[nH]c5ncc(-c6cncc(CNCC7CCCC7)c6)cc45)nc23)cc1 [Compound 142, 1-Cyclopentyl-N-((5-(3-(7-(4-fluorophenyl)-3H-imidazo[4,5-c]pyridin-2-yl)-1H-pyrazolo[3,4-b]pyridin-5-yl)pyridin-3-yl)methyl)methanamine]",0.645
21,"CCCC(=O)Nc1cncc(-c2cnc3[nH]nc(-c4nc5c(-c6ccccc6F)cncc5[nH]4)c3c2)c1 [Compound 158, N-(5-(3-(7-(2-Fluorophenyl)-3H-imidazo[4,5-c]pyridin-2-yl)-1H-pyrazolo[3,4-b]pyridin-5-yl)pyridin-3-yl)butyramide]",0.008
22,"CN(C)Cc1cncc(-c2cnc3[nH]nc(-c4nc5c(-c6cccnc6)cncc5[nH]4)c3c2)c1 [Compound 176, N,N-Dimethyl-1-(5-(3-(7-(pyridin-3-yl)-3H-imidazo[4,5-c]pyridin-2-yl)-1H-pyrazolo[3,4-b]pyridin-5-yl)pyridin-3-yl)methanamine]",1.55
23,"c1cncc(-c2cncc3[nH]c(-c4n[nH]c5ncc(-c6cncc(CN7CCCCC7)c6)cc45)nc23)c1 [Compound 178, 5-(5-(Piperidin-1-ylmethyl)pyridin-3-yl)-3-(7-(pyridin-3-yl)-3H-imidazo[4,5-c]pyridin-2-yl)-1H-pyrazolo[3,4-b]pyridine]",0.392
24,"CC(C)(C)CC(=O)Nc1cncc(-c2cnc3[nH]nc(-c4nc5c(-c6cccnc6)cncc5[nH]4)c3c2)c1 [Compound 179, 3,3-Dimethyl-N-(5-(3-(7-(pyridin-3-yl)-3H-imidazo[4,5-c]pyridin-2-yl)-1H-pyrazolo[3,4-b]pyridin-5-yl)pyridin-3-yl)butanamide]",1.45
25,"O=C(Nc1cncc(-c2cnc3[nH]nc(-c4nc5c(-c6cccnc6)cncc5[nH]4)c3c2)c1)C1CCCCC1 [Compound 185, N-(5-(3-(7-(Pyridin-3-yl)-3H-imidazo[4,5-c]pyridin-2-yl)-1H-pyrazolo[3,4-b]pyridin-5-yl)pyridin-3-yl)cyclohexanecarboxamide]",1.32
26,"Cc1ccncc1-c1cnc2[nH]nc(-c3nc4c(-c5ccncc5)cncc4[nH]3)c2c1 [Compound 192, 5-(4-Methylpyridin-3-yl)-3-(7-(pyridin-4-yl)-3H-imidazo[4,5-c]pyridin-2-yl)-1H-pyrazolo[3,4-b]pyridine]",1.05
27,"CC(C)Nc1cncc(-c2cnc3[nH]nc(-c4nc5c(-c6ccncc6)cncc5[nH]4)c3c2)c1 [Compound 198, N-Isopropyl-5-(3-(7-(pyridin-4-yl)-3H-imidazo[4,5-c]pyridin-2-yl)-1H-pyrazolo[3,4-b]pyridin-5-yl)pyridin-3-amine]",1.13
28,"c1ccc(CNCc2cncc(-c3cnc4[nH]nc(-c5nc6c(-c7ccncc7)cncc6[nH]5)c4c3)c2)cc1 [Compound 209, N-Benzyl-1-(5-(3-(7-(pyridin-4-yl)-3H-imidazo[4,5-c]pyridin-2-yl)-1H-pyrazolo[3,4-b]pyridin-5-yl)pyridin-3-yl)methanamine]",9.8
